Measurements as given in the NIST ThermoML archive (doi:10.1016/j.jct.2015.06.020).
± gives the expanded uncertainty stated by the source.

What was measured:
[1] = Crystal; DTA
[2] = molar heat capacity at constant pressure; details: 101.33 kPa, Crystal, Large sample (1 g) DSC
[3] = Molar enthalpy of transition or fusion; details: Crystal; DSC

NC(=NO)c1nonc1N [4-amino-3-furazancarboxamidoxime]
Details | Molar enthalpy of transition or fusion [kJ/mol] | Normal melting temperature [°C]
[1] | – | 180.41 ± 0.86
[3] | 37.6 ± 0.89 | –

[2]
Details | molar heat capacity at constant pressure [J/K/mol]
283.15 K | 173.37 ± 3.5
288.15 K | 175.71 ± 3.5
293.15 K | 178.06 ± 3.6
298.15 K | 180.4 ± 3.6
303.15 K | 182.75 ± 3.7
308.15 K | 185.1 ± 3.7
313.15 K | 187.44 ± 3.8
318.15 K | 189.79 ± 3.8
323.15 K | 192.13 ± 3.8
328.15 K | 194.48 ± 3.9
333.15 K | 196.83 ± 3.9
338.15 K | 199.17 ± 4
343.15 K | 201.52 ± 4
348.15 K | 203.86 ± 4.1
353.15 K | 206.21 ± 4.1
